From patent US11208386B2, “Inhibitors of protein arginine deiminases (PADs) and methods of preparation and use thereof” (University of Massachusetts, priority 2016, dated 2021)

How the values were obtained:
Format in all cases: biochemical
PAD3 = target: T1, PAD3 (Homo sapiens, UniProt Q9ULW8); experiment: Inactivation kinetics, PAD3; details: for kinact/KI: a: single kobs determined; for Fold PAD3 Selectivity: kinact/KI relative to least inhibited isozyme (1.0)
T1 construct: made in house
T1 sequence (Q9ULW8 1-664): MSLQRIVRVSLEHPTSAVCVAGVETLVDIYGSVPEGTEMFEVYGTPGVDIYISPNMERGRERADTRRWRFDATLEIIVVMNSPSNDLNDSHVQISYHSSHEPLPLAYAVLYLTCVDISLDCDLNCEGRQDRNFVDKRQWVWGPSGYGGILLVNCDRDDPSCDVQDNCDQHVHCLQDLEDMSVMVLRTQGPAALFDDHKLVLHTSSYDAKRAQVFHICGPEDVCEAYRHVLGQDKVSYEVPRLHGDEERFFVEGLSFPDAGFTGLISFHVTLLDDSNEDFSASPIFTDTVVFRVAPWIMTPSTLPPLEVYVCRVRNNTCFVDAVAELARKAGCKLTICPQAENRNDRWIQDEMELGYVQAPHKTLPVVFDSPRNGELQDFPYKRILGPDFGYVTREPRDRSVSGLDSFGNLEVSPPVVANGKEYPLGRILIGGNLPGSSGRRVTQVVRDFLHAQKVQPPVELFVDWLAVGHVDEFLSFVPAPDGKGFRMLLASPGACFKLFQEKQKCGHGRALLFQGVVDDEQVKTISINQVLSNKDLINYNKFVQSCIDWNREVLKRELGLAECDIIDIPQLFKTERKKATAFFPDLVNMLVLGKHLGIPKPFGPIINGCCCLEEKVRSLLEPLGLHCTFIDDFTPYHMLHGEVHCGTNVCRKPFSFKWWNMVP
Outline: (§1)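 PAD1, 2 or 4 (2.0 μM) or PAD3 (5.0 μM) preincubated at 37 °C with varying inhibitor in 50 mM HEPES, 10 mM CaCl2, 2 mM DTT, pH 7.6. Timed aliquots assayed 15 min with 10 mM BAEE (BAA for PAD3); citrulline quantified by COLDER.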

PAD1 = target: T2, PAD1 (Homo sapiens, UniProt Q9ULC6); experiment: Inactivation kinetics, PAD1; details: for kinact/KI: a: single kobs determined, b: from a linear fit; for Fold PAD1 Selectivity: kinact/KI relative to least inhibited isozyme (1.0)
T2 construct: made in house
T2 sequence (Q9ULC6 1-663): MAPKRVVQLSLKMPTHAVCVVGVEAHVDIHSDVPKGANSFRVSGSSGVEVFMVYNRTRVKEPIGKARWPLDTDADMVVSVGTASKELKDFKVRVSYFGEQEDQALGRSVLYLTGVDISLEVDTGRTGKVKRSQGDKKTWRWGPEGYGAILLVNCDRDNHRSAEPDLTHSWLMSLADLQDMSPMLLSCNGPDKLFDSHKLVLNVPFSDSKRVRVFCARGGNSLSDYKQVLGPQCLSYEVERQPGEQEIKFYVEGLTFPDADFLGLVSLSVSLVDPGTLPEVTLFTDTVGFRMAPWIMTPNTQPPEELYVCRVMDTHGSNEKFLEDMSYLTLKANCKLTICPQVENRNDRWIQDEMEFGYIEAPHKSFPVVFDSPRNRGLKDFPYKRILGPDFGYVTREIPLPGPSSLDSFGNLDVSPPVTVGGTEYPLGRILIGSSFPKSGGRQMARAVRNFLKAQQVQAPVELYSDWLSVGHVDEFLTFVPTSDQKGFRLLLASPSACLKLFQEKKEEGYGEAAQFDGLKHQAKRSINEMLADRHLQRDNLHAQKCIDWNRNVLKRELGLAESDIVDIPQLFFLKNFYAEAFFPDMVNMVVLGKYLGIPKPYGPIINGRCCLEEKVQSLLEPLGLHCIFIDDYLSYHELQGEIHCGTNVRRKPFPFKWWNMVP
Outline: as §1

PAD4 = target: T3, PAD4 (Homo sapiens, UniProt Q9UM07); experiment: Inactivation kinetics, PAD4; details: for kinact/KI: a: single kobs determined, b: from a linear fit; for Fold PAD4 Selectivity: kinact/KI relative to least inhibited isozyme (1.0)
T3 construct: made in house
Outline: as §1

PAD2 = target: T4, PAD2 (Homo sapiens, UniProt Q9Y2J8); experiment: Inactivation kinetics, PAD2; details: for kinact/KI: a: single kobs determined, b: from a linear fit, other footnotes: from kinact and KI; for Fold PAD2 Selectivity: kinact/KI relative to least inhibited isozyme (1.0)
T4 construct: made in house
Outline: as §1

T4 sequence (Q9Y2J8 whole entry): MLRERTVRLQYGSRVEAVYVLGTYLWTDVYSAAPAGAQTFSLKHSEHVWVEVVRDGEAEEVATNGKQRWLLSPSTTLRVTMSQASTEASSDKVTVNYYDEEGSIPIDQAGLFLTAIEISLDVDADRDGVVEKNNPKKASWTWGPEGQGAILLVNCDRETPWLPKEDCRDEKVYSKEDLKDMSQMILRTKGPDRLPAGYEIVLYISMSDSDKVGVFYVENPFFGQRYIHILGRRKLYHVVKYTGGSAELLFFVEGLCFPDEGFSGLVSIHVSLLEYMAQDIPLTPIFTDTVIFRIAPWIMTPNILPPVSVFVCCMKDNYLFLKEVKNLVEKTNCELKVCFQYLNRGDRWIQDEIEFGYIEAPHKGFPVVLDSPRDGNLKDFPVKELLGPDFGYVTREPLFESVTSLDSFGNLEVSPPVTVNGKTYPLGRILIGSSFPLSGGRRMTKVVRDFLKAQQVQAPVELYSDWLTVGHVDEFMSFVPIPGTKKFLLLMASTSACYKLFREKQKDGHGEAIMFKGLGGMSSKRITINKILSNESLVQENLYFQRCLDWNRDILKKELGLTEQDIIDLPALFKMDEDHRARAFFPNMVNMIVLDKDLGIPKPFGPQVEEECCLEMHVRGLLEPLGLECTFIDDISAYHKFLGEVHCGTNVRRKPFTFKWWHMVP
T3 sequence (Q9UM07 whole entry): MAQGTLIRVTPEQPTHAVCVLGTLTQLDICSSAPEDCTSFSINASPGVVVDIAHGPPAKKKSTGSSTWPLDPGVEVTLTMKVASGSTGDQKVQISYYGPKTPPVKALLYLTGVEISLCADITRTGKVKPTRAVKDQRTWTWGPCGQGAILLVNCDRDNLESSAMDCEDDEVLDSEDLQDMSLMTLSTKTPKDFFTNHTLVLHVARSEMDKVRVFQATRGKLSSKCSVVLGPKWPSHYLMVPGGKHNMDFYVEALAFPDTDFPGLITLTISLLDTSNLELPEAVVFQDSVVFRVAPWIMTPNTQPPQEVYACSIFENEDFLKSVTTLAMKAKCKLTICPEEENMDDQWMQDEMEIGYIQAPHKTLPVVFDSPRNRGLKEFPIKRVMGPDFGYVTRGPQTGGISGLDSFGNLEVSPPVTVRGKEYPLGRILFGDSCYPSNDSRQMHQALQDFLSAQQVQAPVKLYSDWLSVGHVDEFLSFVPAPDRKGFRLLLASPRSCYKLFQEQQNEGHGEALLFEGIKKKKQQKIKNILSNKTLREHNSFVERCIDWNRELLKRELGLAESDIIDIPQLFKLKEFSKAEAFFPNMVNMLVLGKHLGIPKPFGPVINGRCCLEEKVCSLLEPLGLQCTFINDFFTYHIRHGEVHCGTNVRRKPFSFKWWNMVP

| Structure (SMILES) | kinact/KI (PAD3) [M⁻¹ s⁻¹] | Fold PAD3 Selectivity (PAD3) [fold] | kinact/KI (PAD1) [M⁻¹ s⁻¹] | Fold PAD1 Selectivity (PAD1) [fold] | kinact/KI (PAD4) [M⁻¹ s⁻¹] | Fold PAD4 Selectivity (PAD4) [fold] | kinact/KI (PAD2) [M⁻¹ s⁻¹] | Fold PAD2 Selectivity (PAD2) [fold] | Ki (PAD2; PAD2, table footnote) [µM] | kinact (PAD2; PAD2, table footnote) [s⁻¹] |
| --- | --- | --- | --- | --- | --- | --- | --- | --- | --- | --- |
| CCN1Cc2cccc(C(=O)N[C@@H](CCCNC(=N)CCl)c3nc4c(OC)cccc4n3C)c2C1=O [Compound 8l, N1-(2-ethyl-3-oxoisoindoline)benzoyl-N5-(2-chloro-1-iminoethyl)-1-(4-methoxy-1-methyl-benzo[d]imidazol-2-yl)-L-ornithine] | 247 | 1.0 | 963 | 3.9 | 323 | 1.3 | 1240 | 5.0 | – | – |
| CCN1Cc2cccc(C(=O)N[C@@H](CCCNC(=N)CF)c3nc4ccccc4n3CC)c2C1=O [Compound 8e, N1-(2-ethyl-3-oxoisoindoline)benzoyl-N5-(2-fluoro-1-iminoethyl)-1-(1-ethyl-benzo[d]imidazol-2-yl)-L-ornithine] | 20.8 | 1.0 | 402 | 19 | 20.7 | 1.0 | 677 | 33 | – | – |
| N=C(CF)NCCC[C@H](NC(=O)c1ccc2ccccc2c1)c1nc2ccccc2[nH]1 [Compound 5c] | 46.7 | 3.6 | 25 | 1.9 | 108 | 8.3 | 13.1 | 1.0 | – | – |
| N=C(CF)NCCC[C@H](NC(=O)c1ccc(-c2ccccc2)cc1)c1nc2ccccc2[nH]1 [Compound 5e, N1-[1,4′-Phenyl]benzol-N5-(2-fluoro-1-iminoethyl)-1-(1H-benzo[d]imidazol-2-yl)-L-ornithine] | 56.7 | 3.8 | 15 | 1.0 | 62.5 | 4.2 | 20 | 1.3 | – | – |
| COc1cccc2c1nc([C@H](CCCNC(=N)CF)NC(=O)c1cccc3c1C(=O)N(C1CC1)C3)n2C [Compound 8s] | 20.3 | 1.0 | 766 | 38 | 75 | 3.8 | 1570 | 77 | – | – |
| COc1cccc2c1nc([C@H](CCCNC(=N)CF)NC(=O)c1cccc3c1C(=O)NC3)n2C [Compound 7k, N1-(3-oxoisoindoline)benzoyl-N5-(2-fluoro-1-iminoethyl)-1-(4-methoxy-1-methyl-benzo[d]imidazol-2-yl)-L-ornithine] | 73.8 | 1.0 | 2150 | 29 | 238 | 3.2 | 3500 | 47 | 16.5 | 0.0578 |
| N=C(CCl)NCCC[C@H](NC(=O)c1cccc2c1C(=O)NC2)c1nc2ccccc2[nH]1 [Compound 7b, N1-(3-oxoisoindoline)benzol-N5-(2-chloro-1-iminoethyl)-1-(1H-benzo[d]imidazol-2-yl)-L-ornithine] | 467 | 1.0 | 3010 | 6.5 | 968 | 2.1 | 1090 | 2.3 | – | – |
| N=C(CF)NCCC[C@H](NC(=O)c1ccccc1)c1nc2ccccc2[nH]1 [Compound 5a, N1-benzoyl-N5-(2-fluoro-1-iminoethyl)-1-(1H-benzo[d]imidazol-2-yl)-L-ornithine] | 15 | 1.9 | 75 | 9.5 | 142 | 18 | 7.92 | 1.0 | – | – |
| CCn1c([C@H](CCCNC(=N)CF)NC(=O)c2cccc3c2C(=O)NC3)nc2cc(OC)ccc21 [Compound 7u, N1-(3-oxoisoindoline)benzoyl-N5-(2-fluoro-1-iminoethyl)-1-(5-methoxy-1-ethyl-benzo[d]imidazol-2-yl)-L-ornithine] | 33 | 2.5 | 316 | 24 | 13.2 | 1.0 | 658 | 50 | – | – |
| COc1cccc2[nH]c([C@H](CCCNC(=N)CCl)NC(=O)c3cccc4c3C(=O)NC4)nc12 [Compound 7j, N1-(3-oxoisoindoline)benzoyl-N5-(2-chloro-1-iminoethyl)-1-(4-methoxy-1H-benzo[d]imidazol-2-yl)-L-ornithine] | 502 | 6.9 | 2180 | 30 | 72.3 | 1.0 | 802 | 11 | – | – |
| N=C(CF)NCCC[C@H](NC(=O)c1ccc(-c2ccc(F)cc2)cc1)c1nc2cc(F)c(F)cc2[nH]1 [Compound 5s, N1-4′-F-[1,1′-Phenyl]benzoyl-N5-(2-fluoro-1-iminoethyl)-1-(5,6-difluoro-1H-benzo[d]imidazol-2-yl)-L-omithine] | 18.3 | 1.0 | 29.8 | 1.6 | 67.3 | 3.7 | 23.7 | 1.3 | – | – |
| CCN1Cc2cccc(C(=O)N[C@@H](CCCNC(=N)CF)c3nc4c(OC)cccc4[nH]3)c2C1=O [Compound 8i, N1-(2-ethyl-3-oxoisoindoline)benzoyl-N5-(2-fluoro-1-iminoethyl)-1-(4-methoxy-1H-benzo[d]imidazol-2-yl)-L-ornithine] | 153 | 12 | 1340 | 107 | 12.5 | 1.0 | 396 | 32 | – | – |
| CCn1c([C@H](CCCNC(=N)CF)NC(=O)c2ccc(-c3ccccc3)cc2)nc2ccccc21 [Compound 5i, N1-[1,4′-Phenyl]benzoyl-N5-(2-fluoro-1-iminoethyl)-1-(1-ethyl-benzo[d]imidazol-2-yl)-L-omithine] | 30 | 60 | 12.7 | 25 | 0.5 | 1.0 | 19.3 | 39 | – | – |
| COc1cccc2c1nc([C@H](CCCNC(=N)CCl)NC(=O)c1cccc3c1C(=O)N(C1CC1)C3)n2C [Compound 8t] | 158 | 1.1 | 674 | 4.7 | 143 | 1.0 | 958 | 6.7 | – | – |
| COc1cccc2c1nc([C@H](CCCNC(=N)CF)NC(=O)c1cccc3c1C(=O)N(C(C)C)C3)n2C [Compound 8q] | 26.7 | 1.0 | 858 | 32 | 70 | 2.6 | 1560 | 58 | – | – |
